Test: Microindentation as a measure of enamel hardness: softening by 1.0% w/w citric acid pH 3.8 after 120 s treatment
Design: species or system human
Conditions: FIG. 1
Procedure: Human enamel chips were mounted in acrylic resin and polished flat using silicon carbide paper (1200 and 2400 grit). The specimens were then randomised and divided into three treatment groups (n=6). The treatment groups were 300 ppm fluoride (sodium fluoride); glycerin-coated titanium dioxide (with a mean particle size of 20 nm) aqueous suspension, 2.5% w/v (UV Titan M212, Kemira, Aston Chemicals); and deionised water. The baseline hardness of each specimen was determined using a Struers Duramin Microindentor, fitted with a Vickers diamond indenter. Hardness values were expressed as Vickers Hardness Numbers (VHN). A load of 1.961N was applied to the specimens, with a dwell time of 20 seconds.
Specimens were placed in 30 ml of one of the three test solutions with agitation for 120 seconds, before rinsing with deionised water. After treatment, microhardness measurements were repeated. Erosion was then performed by incubating the mounted specimens for 30 minutes in 10 ml of a 1.0% w/w solution of citric acid, pH 3.8. Specimens were removed from the erosive challenge at 10 minute intervals and the surface microhardness determined.
The values for enamel hardness have been normalised relative to the individual baseline microhardness values, thus data at subsequent time points reflects softening of the enamel. The error bars in FIG. 1 represent standard deviations.
The treatments tested in this study were: 2.5% w/v titanium dioxide aqueous suspensions, specifically 20 nm glycerin-coated titanium dioxide (UV Titan M212, Kemira, Aston Chemicals), 20 nm PVP-coated titanium dioxide (UV Titan M263, Kemira, Aston Chemicals), 17 nm Stearic acid-coated titanium dioxide (UV Titan M160, Kemira, Aston Chemicals) and 14 nm uncoated titanium dioxide (UV Titan X140, Kemira, Aston Chemicals). A glycerin only negative control was used in the study.

[F-].[Na+] [300 ppm fluoride, sodium fluoride]
enamel softening (microhardness normalised to baseline) during citric acid exposure (1.0% w/w citric acid pH 3.8, up to 30 min, 120 s treatment): softened during the period in which they were exposed to citric acid, increasingly so as the incubation time increased
enamel softening versus water-treated enamel (after 20 and 30 mins in citric acid): softened significantly less than enamel treated with water
extent of enamel softening, fluoride versus nanoparticle suspension (after 20 mins citric acid exposure): equivalent in their extent of softening
